Here are results for 13 molecules from patent publication US20100028325A1, “New Combination Of Cationic Preservatives With Taste-Masking Components” (LABORATORIOS MIRET, S.A., priority 2007, published 2010).

What all share (format): in vivo, human
The test system of assay [1] is panel of 10 persons. Description: Taste masking effect on MDLA (200 ppm) in carbonated juice drink. Conditions: scale 1-no taste to 7-unbearable taste. How it is done:
The evaluation of the taste was based on the article titled “Reduction of saltiness and bitterness after a chlorhexidine rinse”, Chem. Senses 26: 105-116 (2001). […] The organoleptic studies were performed with a panel of 10 persons who were trained in experiments involving the tasting of bitter constituents. The panel was asked to compare samples containing a cationic surfactant alone or combined with one or more masking agent. The members of the panel were asked to indicate which sample was less bitter, thereby taking into account the scale of values defined as given above.

In assay [2] the test system is panel of 10 persons. Briefly: Organoleptic taste evaluation of LAE (200 ppm) with masking agents in carbonated juice drink. Particulars: scale 1-no taste to 7-unbearable taste. The method, then: The combination of the test compound neohespiridin (NHDC) with LAE was investigated in a carbonated oral juice drink (a base sugar syrup with concentrated organic juice, manufactured by […] control solution of 200 ppm LAE in the juice drink was prepared. The test samples were prepared by direct dissolution of the test compound in the control solution. The test samples were compared with the control solution and with an untreated (blank) juice drink. The evaluation of the taste was based on the article titled “Reduction of saltiness and bitterness after a chlorhexidine rinse”, Chem. Senses 26: 105-116 (2001). […] The organoleptic studies were performed with a panel of 10 persons who were trained in experiments involving the tasting of bitter constituents. The panel was asked to compare samples containing a cationic surfactant alone or combined with one or more masking agent. The members of the panel were asked to indicate which sample was less bitter, thereby taking into account the scale of values defined as given above. The combination of LAE with only one masking agent, NAF®, was compared with a combination of several masking agents (one of these being NAF®) in carbonated orange juice drinks. The manner of determination of the organoleptic results is the same as described in example 1. The results are reported in the following table 3 where a solution A is compared with a solution B. Composition of solutions (all containing 200 ppm LAE): […] Different types of NAF® are investigated ([…] lemon, NAF® C Orange, etc., all produced by Ogawa). The carbonated orange juice drink is produced by Hausmann S.A.

The subject of assay [3] is panel of 10 persons. Description: Determination of the taste in toothpaste containing LAE (7,500 ppm). Conditions: scale 1-no taste to 7-unbearable taste. The method, then:
The evaluation of the taste was based on the article titled “Reduction of saltiness and bitterness after a chlorhexidine rinse”, Chem. Senses 26: 105-116 (2001). […] The organoleptic studies were performed with a panel of 10 persons who were trained in experiments involving the tasting of bitter constituents. The panel was asked to compare samples containing a cationic surfactant alone or combined with one or more masking agent. The members of the panel were asked to indicate which sample was less bitter, thereby taking into account the scale of values defined as given above. Determination of the taste in toothpaste. The toothpaste used is a standard opaque […] prepared by the addition of (in g): [table] […] A control sample contained LAE in a concentration of 7,500 ppm. The same concentration of LAE was present in all further investigated samples. […] The sweetening agents sorbitol and lactilol were investigated in the same test as described in example 11. The samples were prepared in similar manner, the concentration of LAE was 7,500 ppm.

Another assay deals with consumer. Briefly: Organoleptic experiments (beverages, toothpaste, food matrix, cosmetic preparation). Particulars: for neutralisation of the bitter taste of the cationic surfactant: high doses, combined with a cationic surfactant of formula (1), numerous experiments.
Assay [4] has as its system panel of 10 persons. Description: Determination of the taste masking in toothpaste containing MDLA (7,500 ppm). Particulars: product 3,330 ppm + 7,500 ppm MDLA in toothpaste; scale 1-no taste to 7-unbearable taste. The method, then: The evaluation of the taste was based on the article titled “Reduction of saltiness and bitterness after a chlorhexidine rinse”, Chem. Senses 26: 105-116 (2001). […] The organoleptic studies were performed with a panel of 10 persons who were trained in experiments involving the tasting of bitter constituents. The panel was asked to compare samples containing a cationic surfactant alone or combined with one or more masking agent. The members of the panel were asked to indicate which sample was less bitter, thereby taking into account the scale of values defined as given above. Determination of the taste masking in toothpaste. The toothpaste used was produced in the manner described in example 11.

[5] abbreviates: test compound 1,000 ppm + 200 ppm MDLA in juice drink.
[6] abbreviates: test compound 500 ppm + 200 ppm LAE in juice drink.
Setting [7] is: test compound 1,000 ppm + 200 ppm LAE in juice drink.
Setting [8] is: sweetening agent 200,000 ppm + 7,500 ppm LAE in toothpaste.
Setting [9] is: test compound 10,000 ppm + 200 ppm MDLA in juice drink.
[10] abbreviates: test compound 10,000 ppm + 200 ppm LAE in juice drink.
[11] abbreviates: test compound 60,000 ppm + 200 ppm LAE in juice drink.

As to `CC1(C)[C@@H](O[C@H]2O[C@H](C(=O)O)[C@@H](O)[C@H](O)[C@H]2O[C@@H]2O[C@H](C(=O)O)[C@@H](O)[C@H](O)[C@H]2O)CC[C@]2(C)[C@H]3C(=O)C=C4[C@@H]5C[C@@](C)(C(=O)O)CC[C@]5(C)CC[C@@]4(C)[C@]3(C)CC[C@@H]12` [Glycyrrhizinate, monoammonium glycyrrhizinate], the Organoleptic results was 2.4 in the assay on panel of 10 persons [1] (setting [5]), 2.3 in the assay on panel of 10 persons [2] (test compound 250 ppm + 200 ppm LAE in juice drink), 2 with panel of 10 persons [2] (setting [6]) and 2 with panel of 10 persons [2] (setting [7]).

Consider `CCCCCCCCCCCC(=O)N[C@@H](CCCN=C(N)N)C(=O)OCC.Cl` [LAE, ethyl ester of the lauramide of the arginine monohydrochloride], for which the Organoleptic result in the assay with panel of 10 persons [3] (Control: 7,500 ppm LAE in toothpaste, no masking agent) turned out to be 5.4.

For `OC[C@@H](O)[C@@H](O[C@@H]1O[C@H](CO)[C@H](O)[C@H](O)[C@H]1O)[C@H](O)[C@@H](O)CO` [Lactitol, lactitol], the “neutralisation of the bitter taste of the cationic surfactant” value (from here on “neutralisation”) with consumer is “does not neutralise the bitter taste”. Besides, the Organoleptic result with panel of 10 persons [3] (setting [8]) stood at 5.1.

Turning to `COc1ccc(CCC(=O)c2c(O)cc(O[C@@H]3O[C@H](CO)[C@@H](O)[C@H](O)[C@H]3O[C@@H]3O[C@@H](C)[C@H](O)[C@@H](O)[C@H]3O)cc2O)cc1O` [NHDC], the Organoleptic results in the assay on panel of 10 persons [2] (test compound 1 ppm + 200 ppm LAE in juice drink) was 2.5.

`CCCCCCCCCCCCOS(=O)(=O)[O-].[Na+]` [SDS, sodium dodecyl sulfate]: in the assay on consumer (cationic surfactant of formula (1) combined only with SDS, cosmetic preparation), the “taste of the toothpaste” value is listed as “smooth taste”. Further, the Organoleptic result is 2.9 with panel of 10 persons [4], 2.9 with panel of 10 persons [3] (product 1,960 ppm + 7,500 ppm LAE in toothpaste) and 2.8 with panel of 10 persons [3] (product 3,330 ppm + 7,500 ppm LAE in toothpaste). The Organoleptic results in the assay with panel of 10 persons [1] (test compound 3,320 ppm + 200 ppm MDLA in juice drink) is listed as 2.6; with panel of 10 persons [2] (test compound 1,330 ppm + 200 ppm LAE in juice drink) it was 2.9; in the assay with panel of 10 persons [2] (test compound 1,960 ppm + 200 ppm LAE in juice drink), 2.3; in the assay on panel of 10 persons [2] (test compound 3,320 ppm + 200 ppm LAE in juice drink) it was 1.6.

Take `OC[C@@H](O)[C@@H](O)[C@H](O)[C@@H](O)CO` [Sorbitol, sorbitol]: in the assay with consumer, the “neutralisation” value is given as “does not neutralise the bitter taste”. Further, the Organoleptic result with panel of 10 persons [3] (setting [8]) is given as 4.9.

Consider `OC[C@H]1O[C@H](O[C@]2(CCl)O[C@H](CCl)[C@@H](O)[C@@H]2O)[C@H](O)[C@@H](O)[C@H]1Cl` [Sucralose, sucralose], for which, in the assay with panel of 10 persons [2] (test compound 5 ppm + 200 ppm LAE in juice drink), the Organoleptic results is recorded as 2.7.

As to `OC[C@@H](O)[C@@H](O)[C@H](O)[C@H](O)CO` [mannitol], the “neutralisation” value in the assay on consumer is “does not neutralise the bitter taste”.

`CC(=O)[O-].[Na+]` [sodium acetate]: the values for the Organoleptic results in the assay with panel of 10 persons [1] (setting [9]), in the assay on panel of 10 persons [2] (setting [7]) and in the assay on panel of 10 persons [2] (setting [10]) were 2.8, 2.8 and 2.3, respectively.

As for `N[C@@H](CCC(=O)[O-])C(=O)[O-].[Na+].[Na+]` [sodium glutamate], the Organoleptic results in the assay on panel of 10 persons [1] (setting [5]) came to 5.4; in the assay on panel of 10 persons [2] (setting [7]), 5.0; with panel of 10 persons [2] (setting [11]), 4.8.

As to `OC[C@H]1O[C@@](CO)(O[C@H]2O[C@H](CO)[C@@H](O)[C@H](O)[C@H]2O)[C@@H](O)[C@@H]1O` [sugar], in the assay with consumer, the “neutralisation” value is given as “does not neutralise the bitter taste”. Besides, the Organoleptic results with panel of 10 persons [1] (setting [9]) was 5.1; in the assay with panel of 10 persons [2] (setting [10]), 5.0; with panel of 10 persons [2] (setting [11]), 4.8.

For the molecule `OC[C@H]1O[C@@H]2O[C@H]3[C@H](O)[C@@H](O)[C@@H](O[C@H]4[C@H](O)[C@@H](O)[C@@H](O[C@H]5[C@H](O)[C@@H](O)[C@@H](O[C@H]6[C@H](O)[C@@H](O)[C@@H](O[C@H]7[C@H](O)[C@@H](O)[C@@H](O[C@H]8[C@H](O)[C@@H](O)[C@@H](O[C@H]1[C@H](O)[C@H]2O)O[C@@H]8CO)O[C@@H]7CO)O[C@@H]6CO)O[C@@H]5CO)O[C@@H]4CO)O[C@@H]3CO` [β-cyclodextrin], the Organoleptic results in the assay with panel of 10 persons [2] (setting [7]) is recorded as 2.1. In addition, the Organoleptic result with panel of 10 persons [3] (product 2,000 ppm + 7,500 ppm LAE in toothpaste) came to 2.7.

lysozyme: the figures for the Organoleptic results in the assay on panel of 10 persons [1] (test compound 2,500 ppm + 200 ppm MDLA in juice drink), with panel of 10 persons [2] (setting [6]) and in the assay on panel of 10 persons [2] (test compound 2,500 ppm + 200 ppm LAE in juice drink) were 2.7, 2.5 and 2, respectively.
